According to paper PMC11432405, “Development of Novel Alaninamide Derivatives with Anticonvulsant Activity and Favorable Safety Profiles in Animal Models” (International Journal of Molecular Sciences, 2024):
Read-outs that look alike come from different tables or passages of the source.

Experiments:
human recombinant MAO-B = target: T1, human recombinant MAO-B (Homo sapiens, UniProt P27338); experiment: fluorometric monoamine oxidase B inhibition assay; format: biochemical; conditions: for inhibition at 1 µM: read-out: % inhibition MAO-B (1 µM), mean of two independent experiments; for % inhibition MAO-B (1 µM): mean of two independent experiments
T1 construct: purchased Sigma Aldrich
T1 sequence (P27338 1-520): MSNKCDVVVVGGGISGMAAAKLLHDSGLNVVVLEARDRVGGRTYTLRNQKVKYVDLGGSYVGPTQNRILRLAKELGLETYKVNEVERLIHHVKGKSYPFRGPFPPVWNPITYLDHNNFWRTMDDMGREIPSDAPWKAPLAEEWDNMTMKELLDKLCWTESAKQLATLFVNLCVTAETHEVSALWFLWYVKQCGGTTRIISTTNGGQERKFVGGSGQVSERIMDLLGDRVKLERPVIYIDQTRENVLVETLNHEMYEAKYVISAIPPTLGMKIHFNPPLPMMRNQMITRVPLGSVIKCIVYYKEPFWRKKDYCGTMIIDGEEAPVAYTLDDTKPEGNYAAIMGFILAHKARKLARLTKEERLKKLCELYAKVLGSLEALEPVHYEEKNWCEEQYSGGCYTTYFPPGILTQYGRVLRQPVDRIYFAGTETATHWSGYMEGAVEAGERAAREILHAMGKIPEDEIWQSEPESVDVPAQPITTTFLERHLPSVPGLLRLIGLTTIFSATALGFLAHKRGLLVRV

[1] = rotarod test (acute neurological toxicity, motor coordination); format: in vivo; conditions: male, CD-1 (albino Swiss), mouse, in vivo, ip, mice i.p.
Procedure: The protective indexes (PIs) were then calculated as the ratio of TD50 to ED50 (PI = TD50/ED50), providing an assessment of the therapeutic window for each compound.

6 Hz (32 mA) seizures = experiment: 6 Hz (32 mA) psychomotor seizure model; conditions: for ED50 / responders at 100 mg/kg: Mus musculus, ip; for ED50 / responders at 100 mg/kg / protection (efficacy) in the 6 Hz (32 mA) screening: 0.5 h; for ED50: read-out: ED50 6 Hz (32 mA), mice i.p., TPE 0.5 h, 95% confidence interval in parentheses; for responders at 100 mg/kg: read-out: protection (efficacy) in the 6 Hz (32 mA) screening; for protection (efficacy) in the 6 Hz (32 mA) screening: 100 mg/kg, four mice;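 as to all read-outs here: adult male albino Swiss CD-1 mice, each used once, with compounds suspended in 1% Tween 80 in water as vehicle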
[2] = tested on: maximal electroshock (MES) seizures; experiment: maximal electroshock seizure (MES) test; format: in vivo, mice; conditions: mice i.p.; for responders at 100 mg/kg / ED50: Mus musculus, ip; for ED50: TPE 0.5 h, 95% confidence interval in parentheses
Text: Epilepsy is a multifaceted disorder with often unclear etiology, making it challenging to pinpoint a specific receptor or transporter as the definitive target. Consequently, the discovery of ASMs deviates from the traditional drug development pathway, which typically involves designing a new molecule, docking it with a specific biological target, and performing chemical synthesis, followed by in vitro assays. Instead, numerous animal seizure models, which mirror various types of human epileptic seizures, are initially employed in the process of new ASM discovery. This approach has been instrumental in the identification and introduction into clinical practice of all currently used ASMs and continues to be a cornerstone in the preclinical development of new anticonvulsants. The primary justification for prioritizing in vivo screening over in vitro binding and functional studies is the complex and often not fully elucidated mechanisms of action of known ASMs. This approach also facilitates the discovery of compounds with novel, previously undefined pharmacodynamic properties. In light of this, we evaluated all compounds obtained in the current studies using the MES test, which remains one of the most valuable preclinical screening models for tonic-clonic seizures, as well as partial convulsions with or without secondary generalization in humans. This test allows for a comprehensive assessment of the anticonvulsant efficacy of new ASM candidates and is considered highly relevant for predicting their therapeutic efficacy in human epilepsy. The MES test was carried out in mice following the intraperitoneal (i.p.) administration of a screening dose of 100 mg/kg in a group consisting of four animals. The efficacy of the compounds synthesized was evaluated at 0.5 h pretreatment time.
Fresh solutions were prepared daily for each experimentation session.
Each group consisted of six animals.

[3] = tested on: maximal electroshock (MES) seizures; conditions: mice; cited from earlier work
[4] = 100 mg/kg, 0.5 h, four mice, read-out: protection (efficacy) in the MES screening
[5] = dose of 100 mg/kg, pretreatment time 0.5 h, read-out: MES test: number of mice protected / number of mice tested (converted)

SMILES	inhibition at 1 µM (human recombinant MAO-B) [%]	TD50 at 0.5 h [1] [mg/kg]	ED50 (6 Hz (32 mA) seizures) [mg/kg]	responders at 100 mg/kg (6 Hz (32 mA) seizures) [%]	responders at 100 mg/kg [2, 4] [%]	ED50 [2] [mg/kg]	responders at 100 mg/kg [2, 5] [%]	melting point [°C]	other results
CC(C(=O)NCc1ccc(OCc2cccc(C(F)(F)F)c2)cc1)N1C(=O)CCC1=O (stereo not shown) [Compound 13, 2-(2,5-dioxopyrrolidin-1-yl)-N-(4-((3-(trifluoromethyl)benzyl)oxy)benzyl)propanamide]	0	> 300	67.9	100	100	69.7	100	–	–
CC(C(=O)NCc1ccc(OCc2cccc(OC(F)(F)F)c2)cc1)N1C(=O)CCC1=O (stereo not shown) [Compound 16, 2-(2,5-dioxopyrrolidin-1-yl)-N-(4-((3-(trifluoromethoxy)benzyl)oxy)benzyl)propanamide]	31	> 300	63	50	100	40.5	100	112.2 to 112.9	–
C[C@H](NCc1ccc(OCc2cccc(F)c2)cc1)C(N)=O [SAF, safinamide]	–	–	–	–	–	–	–	–	ED50 in the MES model [3]: 4.1 mg/kg
CC(C(=O)NCc1ccc(OCc2ccc(Cl)cc2)cc1)N1C(=O)CCC1=O (stereo not shown) [Compound 11, N-(4-((4-chlorobenzyl)oxy)benzyl)-2-(2,5-dioxopyrrolidin-1-yl)propanamide]	–	–	–	–	–	–	–	–	% inhibition MAO-B (1 µM) (human recombinant MAO-B): 0%; protection (efficacy) in the 6 Hz (32 mA) screening (6 Hz (32 mA) seizures; mice i.p.): 25%; 6 Hz (32 mA) test: number of mice protected / number of mice tested (6 Hz (32 mA) seizures; mice i.p., dose of 100 mg/kg, pretreatment time 0.5 h): 1/4; protection (efficacy) in the MES screening ([2]; 100 mg/kg, 0.5 h, four mice): ≤ 25%; MES test: number of mice protected / number of mice tested ([2]; dose of 100 mg/kg, pretreatment time 0.5 h): 0/4
CC(C(=O)NCc1ccc(OCc2ccccc2OC(F)(F)F)cc1)N1C(=O)CCC1=O (stereo not shown) [Compound 15, 2-(2,5-dioxopyrrolidin-1-yl)-N-(4-((2-(trifluoromethoxy)benzyl)oxy)benzyl)propanamide]	0	–	–	25	50	–	50	110.5 to 111.2	–
CC(C(=O)NCc1ccccc1OCc1ccccc1)N1C(=O)CCC1=O (stereo not shown) [Compound 23, N-(2-(benzyloxy)benzyl)-2-(2,5-dioxopyrrolidin-1-yl)propanamide]	0	–	–	–	≤ 25	–	25	–	–
CC(C(=O)NCc1ccc(OCc2ccc(F)cc2)cc1)N1C(=O)CCC1=O (stereo not shown) [Compound 8, 2-(2,5-dioxopyrrolidin-1-yl)-N-(4-((4-fluorobenzyl)oxy)benzyl)propanamide]	–	–	–	–	–	–	–	–	% inhibition MAO-B (1 µM) (human recombinant MAO-B): 0%; protection (efficacy) in the 6 Hz (32 mA) screening (6 Hz (32 mA) seizures; mice i.p.): 50%; protection (efficacy) in the MES screening ([2]; 100 mg/kg, 0.5 h, four mice): 50%
CC(C(=O)NCc1ccc(OCc2ccccc2)cc1)N1CCCC1=O (stereo not shown) [Compound 36, N-(4-(benzyloxy)benzyl)-2-(2-oxopyrrolidin-1-yl)propanamide]	0	–	–	25	–	–	100	110.5 to 110.9	–
CC(C(=O)NCc1ccc(OCc2cccc(C(F)(F)F)c2)cc1)N1CCCC1=O (stereo not shown) [Compound 38, 2-(2-oxopyrrolidin-1-yl)-N-(4-((3-(trifluoromethyl)benzyl)oxy)benzyl)propanamide]	2	> 300	65.3	75	–	54.8	100	123.5 to 123.8	–
